Experimental data published in patent US20110236461A1, “METHODS FOR STIMULATING CHONDROGENESIS UTILIZING A POTASSIUM CHANNEL INHIBITOR” (priority 2008, published 2011).

How the values were obtained:
[1] = molecular target: T1, Kv4.2 potassium channel encoded by Kcnd2 (Homo sapiens, UniProt Q9NZV8); conditions: Winkelman et al. 2005; cited from earlier work
T1 sequence (Q9NZV8 1-630): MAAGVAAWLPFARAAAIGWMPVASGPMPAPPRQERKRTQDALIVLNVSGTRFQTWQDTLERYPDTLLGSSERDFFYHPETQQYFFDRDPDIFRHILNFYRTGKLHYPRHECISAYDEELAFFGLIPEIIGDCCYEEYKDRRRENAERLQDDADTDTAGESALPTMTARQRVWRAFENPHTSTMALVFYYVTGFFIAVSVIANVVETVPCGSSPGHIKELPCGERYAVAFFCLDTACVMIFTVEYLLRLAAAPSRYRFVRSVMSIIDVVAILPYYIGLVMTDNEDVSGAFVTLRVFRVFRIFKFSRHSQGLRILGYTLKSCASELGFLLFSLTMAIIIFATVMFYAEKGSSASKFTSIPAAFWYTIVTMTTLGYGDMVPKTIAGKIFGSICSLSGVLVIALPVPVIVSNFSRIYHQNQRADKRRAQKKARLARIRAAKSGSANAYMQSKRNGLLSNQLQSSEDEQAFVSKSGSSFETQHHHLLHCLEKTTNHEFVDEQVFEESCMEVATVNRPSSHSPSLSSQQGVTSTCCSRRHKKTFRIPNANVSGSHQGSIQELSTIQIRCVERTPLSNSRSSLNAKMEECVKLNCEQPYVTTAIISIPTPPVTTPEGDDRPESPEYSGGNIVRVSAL

[2] = tested on: primary limb mesenchymal (PLM) cultures; assay: alcian blue staining of PLM cultures; type: cell-based, murine; conditions: PLM transfection assays and alcian blue staining experiments
Protocol: Primary limb mesenchymal (PLM) cultures were established from CD-1 murine embryonic limbs (E11.5) as previously described (Hoffman et al., J. Cell 174:101-13 (2006); Weston et al., J. Cell Biol., 158:39-51 (2002)). Limb mesenchyme was dissociated by dispase treatment and a single cell suspension was obtained by filtration through a […] cell strainer (BD Biosciences). PLM cells were pelleted by centrifugation at 200×g and resuspended to produce a stock cell suspension at a concentration of 2.0×10^7 cells/ml. Cells were used for transfection (Example 2) or for establishment of cultures for alcian blue staining. For the latter, 10 μl of PLM cells were spotted into the well of a 24-well plate, and allowed to adhere for 1 h. Culture medium consisting of 60% Ham's F12 nutrient mix/40% Dulbecco's modified Eagle's medium (DMEM) and supplemented with 10% FBS (Qualified, Invitrogen) was added to each well; this time was considered T=0. Cultures were maintained for a period of up to 4 days, and culture media was replaced on alternate days to minimize handling. For alcian blue staining, culture medium was aspirated and cells were washed once with PBS. Cultures were fixed in 95% ethanol at −20° C. overnight. Fixative was removed by aspiration and cells were sequentially washed once with PBS, followed by 0.2M HCl. Cells were stained overnight with a 1% alcian blue solution prepared in 0.2M HCl.

pGL3(4×48) reporter = pGL3(4×48) reporter in high-density murine limb bud-derived cultures, compounds alone or in combination; type: cell-based; conditions: BMP4 20 ng/ml, BAB 10 μM, 4310 100 nM; 24 h and 72 h after treatment; normalized to untreated controls
Protocol: High-density murine limb bud-derived cultures were established as previously described (Hoffman 2006). Media was replaced every two days. Cells were transfected on day 0 with pGL3(4×48) (reporter) and phRL-SV40 (to normalize transfection efficiency) plasmids using Effectene transfection reagent (Qiagen). Twenty-four hours after transfection, cells were treated with the following final concentrations of compounds, either individually or in combination: BMP4 (20 ng/ml), butamben (BAB) (10 μM), and the pan-RAR antagonist 4310 (100 nM). Lysates were collected at 24 h and 72 h after treatment. Luciferase activity was measured using the Dual-Luciferase® kit according to the manufacturer's instructions (Promega). Reporter activity was normalized to untreated controls (−) on the same day.

Mmp13 = Mmp13 mRNA in murine limb bud-derived high-density cultures, TaqMan real-time PCR; type: cell-based; conditions: BMP4 20 ng/ml, BAB 10 μM, 4310 100 nM; RNA at five and ten days; normalized to 5-day control
Protocol: Murine limb bud-derived high-density cultures were established as previously described (Hoffman 2006). Media was replaced every three days. After 24 hours of culture, compounds were added at the following final concentrations: BMP4 (20 ng/ml), BAB (10 μM), and 4310 (100 nM). After 72 hours of culture, ascorbic acid and beta-glycerol phosphate were added to the culture at final concentrations of 126 μM and 1 mM, respectively. RNA was isolated from cultures at five and ten days. Gene expression was assessed using real-time PCR with TaqMan® probe and primer sets (Applied Biosystems, Taqman Gene Expression Assay Mm00439491_m1). All gene expression levels were normalized to the 5-day control (set at 100%). Results are shown in FIG. 7 and are the average of two replicates.

[3] = tested on: pGL3(4×48) reporter gene (Sox5/6/9 binding sites); assay: PLM transfection assay, pGL3(4×48) luciferase reporter; type: cell-based, murine; conditions: PLM cultures, relative to control
Protocol: (§1) Primary limb mesenchymal (PLM) cultures were established from CD-1 murine embryonic limbs (E11.5) as previously described (Hoffman et al., J. Cell 174:101-13 (2006); Weston et al., J. Cell Biol., 158:39-51 (2002)). Limb mesenchyme was dissociated by dispase treatment and a single cell suspension was obtained by filtration through a […] cell strainer (BD Biosciences). PLM cells were pelleted by centrifugation at 200×g and resuspended to produce a stock cell suspension at a concentration of 2.0×10^7 cells/ml. Cells were used for transfection (Example 2) or for establishment of cultures for alcian blue staining.
Stock plasmid DNAs were standardized to a concentration of 1 mg/ml. For co-transfections, a ratio of 3:1 gene of interest to reporter gene was used. Luciferase reporter genes consist of a firefly reporter gene, pGL3(4×48), and a Renilla (Renilla reniformis) luciferase reporter phRL-SV40 to normalize for transfection efficiency. Transfections were carried out using Effectene reagent (Qiagen). The pGL3(4×48) reporter contains four repeats of a Sox5/6/9 binding site. Reporter plasmids containing Sox5/6/9 binding sites (pGL3[4×48]) were previously described (Weston et al., J. Cell Biol., 158:39-51 (2002)).
This dose range is consistent with previous studies on butamben binding and inhibition of potassium channels. […]

[4] = tested on: voltage-gated potassium channel Kv1 and 4 classes; conditions: Winkelman et al. 2005; Beekwilder et al. 2003; cited from earlier work
Sox9 = Sox9 expression in PLM cultures by RT-qPCR; type: cell-based, murine; conditions: PLM cultures treated for 1 or 3 days, relative to control
Protocol: as §1
To follow the expression of transcripts for Kcnd2 and Sox9, quantitative real-time PCR was performed using the 7500 Fast Sequence Detection System (Applied Biosystems). The primer/probe set used for detection of Sox9 was as described in Weston et al., J. Cell Biol., 158:39-51 (2002). For detection of all other transcripts, TaqMan Gene Expression Assays (Applied Biosystems) were used. Total RNA was isolated from primary cultures, and an aliquot was reverse transcribed to cDNA using a High Capacity cDNA Archive kit (Applied Biosystems). Quantification was performed using ˜10 ng of total RNA and the expression of all genes relative to endogenous rRNA was determined using TaqMan Ribosomal Control Reagents (Applied Biosystems). […]

In the case of `CCCCOC(=O)c1ccc(N)cc1` [butamben, butyl 4-aminobenzoate], the “block of Kv4.2 potassium channel” value [1] is given as “blocked”, the chondrogenic activity [2] is given as “low micromolar concentrations of butamben stimulate chondrogenic activity” and the “pGL3(4×48) reporter gene activity” value (pGL3(4×48) reporter) is given as “increased”. For the same molecule, the Mmp13 expression (Mmp13) was “markedly decreased”, the “activity of chondrogenic responsive reporter gene pGL3(4×48)” value [3] was “significantly increase” and the “block of voltage-gated potassium channel Kv1 and 4 classes” value [4] was “blocks”. For the same molecule, the Sox9 expression (Sox9) was “increased Sox9 expression”.

In the case of `Nc1ccncc1` [4-AP, 4-aminopyridine], the “activity of chondrogenic responsive reporter gene pGL3(4×48)” value [3] is reported as “significantly induces”.

B1: BMP4: bone morphogenetic protein-4 (protein, UniProt P12644 293-408, looked up)
Bone morphogenetic protein 4: SPKHHSQRARKKNKNCRRHSLYVDFSDVGWNDWIVAPPGYQAFYCHGDCPFPLADHLNSTNHAIVQTLVNSVNSSIPKACCVPTELSAISMLYLDEYDKVVLKNYQEMVVEGCGCR
With B1 the “pGL3(4×48) reporter gene activity” value (pGL3(4×48) reporter) was “increased” and the Mmp13 expression (Mmp13) was “increased”.
